The record followed here is patent publication US11840686B2, “Modulation of prekallikrein (PKK) expression” (Ionis Pharmaceuticals, Inc., priority 2013, dated 2023).

Strand notation (5' to 3'): a small letter for the sugar, then the base; units joined by * are phosphorothioate-linked, units joined directly phosphodiester-linked; [ ] holds rarer units or linkages, { } end groups; capitals alone tell only the bases. e = 2'-O-(2-methoxyethyl) (MOE); [5mC] = 5-methylcytosine; d = 2'-deoxy (DNA)

For the first data set, the system named is human PKK mRNA. The experiment in a line: Antisense inhibition of human PKK mRNA in HepaRG cells, 5,000 nM (Example 2). It counts as cell-based. To be noted: HepaRG cells, 5,000 nM antisense oligonucleotide; 5-10-5 gapmers; Table 16. The procedure, abridged: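 qRT-PCR (RTS3454) read-out, RIBOGREEN-normalized; % inhibition vs untreated cells. HepaRG, 20,000 cells/well, electroporation, 5,000 nM ASO, ~24 h.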
“547677 (antisense e[5mC]*eA*eT*e[5mC]*eA*d[5mC]*dT*dG*dT*d[5mC]*d[5mC]*dT*dA*dT*dA*eA*e[5mC]*eT*eA*eT) [compound 547677]”: the “% inhibition” value was determined as 62%. The same measure, in the same setting: for “547678 (antisense eT*eA*e[5mC]*e[5mC]*eT*dA*dT*dA*dT*d[5mC]*dA*d[5mC]*dT*dG*dT*eA*eA*e[5mC]*eT*eA) [compound 547678]” the value was 21%; for “547679 (antisense eT*eG*eT*eA*e[5mC]*d[5mC]*dT*dA*dT*dA*dT*d[5mC]*dA*d[5mC]*dT*eG*eT*eA*eA*e[5mC]) [compound 547679]”, 28%.

Take “547680 (antisense eT*eA*eT*e[5mC]*eA*d[5mC]*dT*dG*dT*dA*d[5mC]*d[5mC]*dT*dA*dT*eA*eT*e[5mC]*eA*e[5mC]) [compound 547680]”: the “% inhibition” value came out at 41%.

As to “547681 (antisense eA*eA*eT*eA*eT*d[5mC]*dA*d[5mC]*dT*dG*dT*dA*d[5mC]*d[5mC]*dT*eA*eT*eA*eT*e[5mC]) [compound 547681]”, the “% inhibition” value is reported as 6%. In the case of “547682 (antisense e[5mC]*eA*eA*eT*eA*dT*d[5mC]*dA*d[5mC]*dT*dG*dT*dA*d[5mC]*d[5mC]*eT*eA*eT*eA*eT) [compound 547682]”, the “% inhibition” value is 20%. The same measure, in the same setting: the result for “547683 (antisense eA*e[5mC]*eT*eA*eT*dA*dT*d[5mC]*dA*d[5mC]*dT*dG*dT*d[5mC]*d[5mC]*eT*eA*eT*eA*eA) [compound 547683]” reads 33%; that for “547684 (antisense eT*eA*eA*e[5mC]*eT*dA*dT*dA*dT*d[5mC]*dA*d[5mC]*dT*dG*dT*e[5mC]*e[5mC]*eT*eA*eT) [compound 547684]”, 43%; that for “547685 (antisense eA*eT*eA*eA*e[5mC]*dT*dA*dT*dA*dT*d[5mC]*dA*d[5mC]*dT*dG*eT*e[5mC]*e[5mC]*eT*eA) [compound 547685]”, 35%. With “547686 (antisense e[5mC]*eT*eG*eT*e[5mC]*d[5mC]*dT*dA*dT*dA*dA*d[5mC]*dT*dA*dT*eA*eT*e[5mC]*eA*e[5mC]) [compound 547686]”, the “% inhibition” value stood at 36%.

“547687 (antisense eA*e[5mC]*eT*eG*eT*d[5mC]*d[5mC]*dT*dA*dT*dA*dA*d[5mC]*dT*dA*eT*eA*eT*e[5mC]*eA) [compound 547687]”: the “% inhibition” value worked out at 41%. Still for that read-out and setting: for “547688 (antisense e[5mC]*eA*e[5mC]*eT*eG*dT*d[5mC]*d[5mC]*dT*dA*dT*dA*dA*d[5mC]*dT*eA*eT*eA*eT*e[5mC]) [compound 547688]” the value was 47%. On the same count and under the same terms, the result for “547689 (antisense eG*eT*eA*eA*e[5mC]*dA*dA*dT*dA*dT*d[5mC]*dA*d[5mC]*dT*dG*eT*e[5mC]*e[5mC]*eT*eA) [compound 547689]” reads 73%; that for “547690 (antisense e[5mC]*eT*eG*eT*eA*dA*d[5mC]*dA*dA*dT*dA*dT*d[5mC]*dA*d[5mC]*eT*eG*eT*e[5mC]*e[5mC]) [compound 547690]”, 76%. On the same count and under the same terms, the result for “547691 (antisense eA*e[5mC]*eT*eG*eT*dA*dA*d[5mC]*dA*dA*dT*dA*dT*d[5mC]*dA*e[5mC]*eT*eG*eT*e[5mC]) [compound 547691]” reads 36%; that for “547692 (antisense e[5mC]*eA*e[5mC]*eT*eG*dT*dA*d[5mC]*d[5mC]*dT*dA*dT*dA*dA*d[5mC]*eT*eG*eT*eA*eA) [compound 547692]”, 47%. On to “547693 (antisense eT*e[5mC]*eA*e[5mC]*eT*dG*dT*dA*d[5mC]*d[5mC]*dT*dA*dT*dA*dA*e[5mC]*eT*eG*eT*eA) [compound 547693]”, for which the “% inhibition” value is 61%. Still for that read-out and setting: for “547695 (antisense eA*e[5mC]*eT*eG*eT*d[5mC]*d[5mC]*dT*dA*dT*dA*dA*d[5mC]*dT*dA*eT*eT*eA*e[5mC]*eA) [compound 547695]” the value was 31%. As for “547696 (antisense e[5mC]*eA*e[5mC]*eT*eG*dT*d[5mC]*d[5mC]*dT*dA*dT*dA*dA*d[5mC]*dT*eA*eT*eT*eA*e[5mC]) [compound 547696]”, the “% inhibition” value was 26%.

The same data set, now with this note: human PKK mRNA, HepaRG cells; 5-10-5 motif oligonucleotides targeting SEQ ID NO: 1 and 10.
For the substance “547651 (eT*eG*eT*eA*e[5mC]*d[5mC]*dT*dA*dT*dA*dA*d[5mC]*dA*dG*dT*eA*eT*e[5mC]*eA*e[5mC]; antisense) [compound 547651]”, the “% inhibition” value came out at 48%. The same measure, in the same setting: for “547652 (eT*e[5mC]*eA*e[5mC]*eT*dG*dT*dA*d[5mC]*d[5mC]*dT*dA*dT*dA*dA*e[5mC]*eA*eG*eT*eA; antisense) [compound 547652]” the value was 59%; for “547653 (eA*eT*e[5mC]*eA*e[5mC]*dT*dG*dT*dA*d[5mC]*d[5mC]*dT*dA*dT*dA*eA*e[5mC]*eA*eG*eT; antisense) [compound 547653]”, 57%; for “547654 (eT*eA*eT*e[5mC]*eA*d[5mC]*dT*dG*dT*dA*d[5mC]*d[5mC]*dT*dA*dT*eA*eA*e[5mC]*eA*eG; antisense) [compound 547654]”, 53%.

Take “547655 (eA*eA*eT*eA*eT*d[5mC]*dA*d[5mC]*dT*dG*dT*d[5mC]*d[5mC]*dT*dA*eT*eA*eA*e[5mC]*eT; antisense) [compound 547655]”: the “% inhibition” value is recorded as 37%. Still for that read-out and setting: for “547656 (e[5mC]*eA*eA*eT*eA*dT*d[5mC]*dA*d[5mC]*dT*dG*dT*d[5mC]*d[5mC]*dT*eA*eT*eA*eA*e[5mC]; antisense) [compound 547656]” the value was 42%; for “547657 (eA*e[5mC]*eA*eA*eT*dA*dT*d[5mC]*dA*d[5mC]*dT*dG*dT*d[5mC]*d[5mC]*eT*eA*eT*eA*eA; antisense) [compound 547657]”, 43%; for “547658 (e[5mC]*eG*eT*eA*e[5mC]*dT*dA*dG*dT*dT*dT*d[5mC]*d[5mC]*dT*dA*eT*eA*eA*e[5mC]*eT; antisense) [compound 547658]”, 68%.

Take “547659 (eA*e[5mC]*eT*eA*eT*dA*dA*d[5mC]*dA*dG*dT*dA*dT*d[5mC]*dA*e[5mC]*e[5mC]*eG*eT*eA; antisense) [compound 547659]”: the “% inhibition” value was 80%. On the same count and under the same terms, the result for “547660 (eA*eA*e[5mC]*eT*eA*dT*dA*dA*d[5mC]*dA*dG*dT*dA*dT*d[5mC]*eA*e[5mC]*e[5mC]*eG*eT; antisense) [compound 547660]” reads 68%; that for “547661 (eT*eA*eA*e[5mC]*eT*dA*dT*dA*dA*d[5mC]*dA*dG*dT*dA*dT*e[5mC]*eA*e[5mC]*e[5mC]*eG; antisense) [compound 547661]”, 80%.

As to “547662 (eA*e[5mC]*e[5mC]*eT*eA*dT*dA*dA*d[5mC]*dT*dA*dT*dA*dA*d[5mC]*eA*eG*eT*eA*eT; antisense) [compound 547662]”, the “% inhibition” value amounted to 0%.

“547663 (eT*eA*e[5mC]*e[5mC]*eT*dA*dT*dA*dA*d[5mC]*dT*dA*dT*dA*dA*e[5mC]*eA*eG*eT*eA; antisense) [compound 547663]”: the “% inhibition” value is reported as 10%. Same read-out and setting: for “547664 (eG*eT*eA*e[5mC]*e[5mC]*dT*dA*dT*dA*dA*d[5mC]*dT*dA*dT*dA*eA*e[5mC]*eA*eG*eT; antisense) [compound 547664]” the value was 2%; for “547665 (eT*eG*eT*eA*e[5mC]*d[5mC]*dT*dA*dT*dA*dA*d[5mC]*dT*dA*dT*eA*eA*e[5mC]*eA*eG; antisense) [compound 547665]”, 10%; for “547666 (eA*eT*e[5mC]*eA*e[5mC]*dT*dG*dT*dA*d[5mC]*d[5mC]*dT*dA*dT*dA*eA*e[5mC]*eT*eA*eT; antisense) [compound 547666]”, 71%.

Take “547667 (eT*eA*eT*e[5mC]*eA*d[5mC]*dT*dG*dT*dA*d[5mC]*d[5mC]*dT*dA*dT*eA*eA*e[5mC]*eT*eA; antisense) [compound 547667]”: the “% inhibition” value is recorded as 55%. Same read-out and setting: the result for “547668 (e[5mC]*eA*eA*e[5mC]*eT*dA*dT*dA*dA*d[5mC]*dA*dG*dT*dA*dT*e[5mC]*eA*e[5mC]*eT*eG; antisense) [compound 547668]” reads 44%; that for “547669 (eA*e[5mC]*eA*eA*e[5mC]*dT*dA*dT*dA*dA*d[5mC]*dA*dG*dT*dA*eT*e[5mC]*eA*e[5mC]*eT; antisense) [compound 547669]”, 0%; that for “547670 (eT*eA*e[5mC]*eA*eA*d[5mC]*dT*dA*dT*dA*dA*d[5mC]*dA*dG*dT*eA*eT*e[5mC]*eA*e[5mC]; antisense) [compound 547670]”, 0%. On the same count and under the same terms, the result for “547671 (e[5mC]*eT*eA*e[5mC]*eA*dA*d[5mC]*dT*dA*dT*dA*dA*d[5mC]*dA*dG*eT*eA*eT*e[5mC]*eA; antisense) [compound 547671]” reads 0%; that for “547672 (e[5mC]*eA*eA*eT*eA*dT*d[5mC]*dA*d[5mC]*dT*dG*dT*d[5mC]*d[5mC]*dT*eA*e[5mC]*eA*eA*e[5mC]; antisense) [compound 547672]”, 36%. For the substance “547673 (eG*eA*eA*eT*eA*dT*d[5mC]*dA*d[5mC]*dT*dG*dT*d[5mC]*d[5mC]*dT*eA*eT*eA*eA*e[5mC]; antisense) [compound 547673]”, the “% inhibition” value was 21%. On to “547674 (eA*e[5mC]*eA*eA*eT*dA*dT*d[5mC]*dA*d[5mC]*dT*dG*dT*dA*d[5mC]*e[5mC]*eT*eT*eT*eA; antisense) [compound 547674]”, for which the “% inhibition” value is 53%. The same measure, in the same setting: for “547675 (antisense eT*eG*eT*e[5mC]*e[5mC]*dT*dA*dT*dA*dA*d[5mC]*dT*dA*dT*dA*eA*e[5mC]*eA*eA*eT) [compound 547675]” the value was 10%. As to “547676 (antisense e[5mC]*eT*eG*eT*e[5mC]*d[5mC]*dT*dA*dT*dA*dA*d[5mC]*dT*dA*dT*eA*eA*e[5mC]*eA*eA) [compound 547676]”, the “% inhibition” value turned out to be 41%.

By % inhibition is commonly meant the drop in the measured response relative to a control, in per cent. A low value points to a response near the control.
